Marks after values point to notes of the source that are not given here.
Tests used:
B16-F1 melanoma = assay: B16-F1 melanoma: PDT (verteporfin 1.0 mg/kg i.v., 100 J/cm^2) with or without intratumoral TITERMAX, then experimental pulmonary metastases; assay type: in vivo, C57BL/6 mice
Method: Male, C57BL/6 mice were obtained from Charles River Canada (Montreal, QC) at 6 to 8 weeks of age. The B 16-F0 and B 16-F1 melanoma cell lines were obtained from the […] (ATC™) (Manassas, Va.) and grown as cell cultures in Dulbecco's Modified Eagle Medium (DMEM) (Gibco) supplemented with 10% fetal bovine serum (Sigma). The cells adhered to tissue culture plates, were removed for passage with 0.25% trypsin with 1.0 mM ethylenediaminetetraacetic acid (EDTA) (Gibco), and were cryo-preserved in liquid nitrogen in DMEM plus 40% FBS and 10% DMSO. Mice were injected with 5×10^5 tumor cells in a total volume of 50 μL subcutaneously into the shaved, right flank. The tumor size was monitored daily by measuring the diameter with vernier calipers and were treated when the tumors reached approximately 5 mm in diameter. […] Subsequently the B16-F1 cell line was used for all experiments.
PDT treatment of mice bearing the B16-F1 tumor was performed as previously described for the M1 rhabdomyosarcoma mouse tumor (Richter et al., 1987; Richter et al., 1988; Richter et al., 1991). Each mouse was weighed, warmed under infrared light for less than 5 min to dilate the blood vessels, restrained, and injected intravenously (tail vein) with verteporfin at a concentration of 1.0 mg/kg body weight using a 28G needle. […] Following treatment, animals were monitored daily for tumor response. […]

M1 (rhabdomyosarcoma) = assay: Reimplantation of M1 tumor on Day 20 into tumor-free mice treated with PDT (verteporfin 1.0 mg/kg i.v. + light) with or without DETOX B-SE; assay type: in vivo; details: for Survival (tumour less than 1 cm long, not euthanized) / Tumor-take Rate: reimplanted Day 20
Source text: The thirty mice in treatment group 7 were implanted at the same time as those reimplanted on Groups 1-6 to provide a control for the rate of tumor-take. Ten mice were implanted on each of three separate batches of 10 mice to match the days of reimplantation of 1-6.
High dose PDT gave approximately 60% fewer tumors (n=9), and this percentage was not changed by the addition of high dose immunoadjuvant (n=5). The lower dose of immunoadjuvant combined with high dose PDT gave more protection against rechallenge (20% take rate, n=6).

[1] = Optimal PDT (75 J/cm^2), n = 9, day 23 post-PDT
[2] = Optimal PDT (75 J/cm^2), n = 9, day 26 post-PDT
[3] = Optimal PDT (75 J/cm^2), n = 9, day 29 post-PDT
[4] = Optimal PDT (75 J/cm^2), n = 9, day 32 post-PDT
[5] = Optimal PDT (75 J/cm^2), n = 9, day 35 post-PDT
[6] = Optimal PDT (75 J/cm^2), n = 9, day 38 post-PDT
[7] = Optimal PDT (75 J/cm^2), n = 9, day 41 post-PDT
[8] = Optimal PDT (75 J/cm^2), n = 9, day 44 post-PDT
[9] = Optimal PDT (75 J/cm^2), n = 9, day 47 post-PDT
[10] = Optimal PDT (75 J/cm^2), n = 9, day 50 post-PDT
[11] = Sub-optimal PDT (25 J/cm^2), n = 7, day 23 post-PDT
[12] = Sub-optimal PDT (25 J/cm^2), n = 7, day 26 post-PDT
[13] = Sub-optimal PDT (25 J/cm^2), n = 7, day 29 post-PDT
[14] = Sub-optimal PDT (25 J/cm^2), n = 7, day 32 post-PDT
[15] = Sub-optimal PDT (25 J/cm^2), n = 7, day 35 post-PDT
[16] = Sub-optimal PDT (25 J/cm^2), n = 7, day 38 post-PDT
[17] = Sub-optimal PDT (25 J/cm^2), n = 7, day 41 post-PDT
[18] = Sub-optimal PDT (25 J/cm^2), n = 7, day 44 post-PDT
[19] = Sub-optimal PDT (25 J/cm^2), n = 7, day 47 post-PDT
[20] = Sub-optimal PDT (25 J/cm^2), n = 7, day 50 post-PDT

## benzoporphyrin derivative monoacid ring A [verteporfin]
B16-F1 melanoma; of five animals per group, subcutaneous B16-F1 tumor
  animals that required repeated treatment to complete the tumor cure: 3
B16-F1 melanoma; one of the 5 animals treated with PDT alone, 14 days after i.v. tumor cells
  lung colonies: 6
M1 (rhabdomyosarcoma); High dose PDT (75 J/cm^2), n=9
  fewer tumors upon reimplantation than in untreated naïve mice: approximately 60%
M1 (rhabdomyosarcoma); Low dose PDT alone (25 J/cm^2), superior to low dose PDT combined with low-dose adjuvant
  protection against rechallenge relative to controls: substantial protection
M1 (rhabdomyosarcoma); [1]
  Survival (tumour less than 1 cm long, not euthanized): 100%
  Tumor-take Rate: 0%
M1 (rhabdomyosarcoma); [2]
  Survival (tumour less than 1 cm long, not euthanized): 100%
  Tumor-take Rate: 44^d %
M1 (rhabdomyosarcoma); [3]
  Survival (tumour less than 1 cm long, not euthanized): 100%
  Tumor-take Rate: 44^c %
M1 (rhabdomyosarcoma); [4]
  Survival (tumour less than 1 cm long, not euthanized): 100%
  Tumor-take Rate: 44^c %
M1 (rhabdomyosarcoma); [5]
  Survival (tumour less than 1 cm long, not euthanized): 89^c %
  Tumor-take Rate: 44^c %
M1 (rhabdomyosarcoma); [6]
  Survival (tumour less than 1 cm long, not euthanized): 89%
  Tumor-take Rate: 44^c %
M1 (rhabdomyosarcoma); [7]
  Survival (tumour less than 1 cm long, not euthanized): 89%
  Tumor-take Rate: 44^c %
M1 (rhabdomyosarcoma); [8]
  Survival (tumour less than 1 cm long, not euthanized): 78%
  Tumor-take Rate: 44^c %
M1 (rhabdomyosarcoma); [9]
  Survival (tumour less than 1 cm long, not euthanized): 56%
  Tumor-take Rate: 44^c %
M1 (rhabdomyosarcoma); [10]
  Survival (tumour less than 1 cm long, not euthanized): 56%
  Tumor-take Rate: 44^c %
M1 (rhabdomyosarcoma); [11]
  Survival (tumour less than 1 cm long, not euthanized): 100%
  Tumor-take Rate: 0%
M1 (rhabdomyosarcoma); [12]
  Survival (tumour less than 1 cm long, not euthanized): 100%
  Tumor-take Rate: 43%
M1 (rhabdomyosarcoma); [13]
  Survival (tumour less than 1 cm long, not euthanized): 100%
  Tumor-take Rate: 43%
M1 (rhabdomyosarcoma); [14]
  Survival (tumour less than 1 cm long, not euthanized): 100%
  Tumor-take Rate: 43%
M1 (rhabdomyosarcoma); [15]
  Survival (tumour less than 1 cm long, not euthanized): 100%
  Tumor-take Rate: 43%
M1 (rhabdomyosarcoma); [16]
  Survival (tumour less than 1 cm long, not euthanized): 100%
  Tumor-take Rate: 43%
M1 (rhabdomyosarcoma); [17]
  Survival (tumour less than 1 cm long, not euthanized): 100%
  Tumor-take Rate: 29%
M1 (rhabdomyosarcoma); [18]
  Survival (tumour less than 1 cm long, not euthanized): 86%
  Tumor-take Rate: 29%
M1 (rhabdomyosarcoma); [19]
  Survival (tumour less than 1 cm long, not euthanized): 86%
  Tumor-take Rate: 29%
M1 (rhabdomyosarcoma); [20]
  Survival (tumour less than 1 cm long, not euthanized): 86%
  Tumor-take Rate: 29%

Reference: patent US7850981B2, “Immuno-adjuvant PDT treatment of metastatic tumors” (QLT, Inc., priority 1999, dated 2010)
